Target: T1, HPK1 (Homo sapiens, UniProt Q92918)
T1 construct: A HiBiT tag was introduced by CRISPR on the N terminus of HPK1 in Jurkat cells; host or cells: Jurkat cells (ATCC TIB-152), monoclonal line with CRISPR knock-in of HiBiT at the endogenous HPK1 locus
Assay: HPK1 Cellular HiBit Degradation Assay
Format: cell-based
Conditions: HiBiT HPK1 Jurkat cells, 24 hrs; for DC50: concentration at which 50% of HPK1 was remaining, read-out: DC50 Category; for Dmax: Jurkat, maximum degradation vs DMSO vehicle control, read-out: Dmax Category
Summary of the method: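 Degraders are dosed in an 11-point series (10 uM to 0.1 nM final) onto Jurkat cells carrying an N-terminal HiBiT tag on endogenous HPK1. After 24 hrs at 37° C, lysis-based HiBiT luminescence quantifies remaining HPK1 relative to vehicle, and curve fitting gives DC50 and Dmax.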

T1 sequence (Q92918 whole entry): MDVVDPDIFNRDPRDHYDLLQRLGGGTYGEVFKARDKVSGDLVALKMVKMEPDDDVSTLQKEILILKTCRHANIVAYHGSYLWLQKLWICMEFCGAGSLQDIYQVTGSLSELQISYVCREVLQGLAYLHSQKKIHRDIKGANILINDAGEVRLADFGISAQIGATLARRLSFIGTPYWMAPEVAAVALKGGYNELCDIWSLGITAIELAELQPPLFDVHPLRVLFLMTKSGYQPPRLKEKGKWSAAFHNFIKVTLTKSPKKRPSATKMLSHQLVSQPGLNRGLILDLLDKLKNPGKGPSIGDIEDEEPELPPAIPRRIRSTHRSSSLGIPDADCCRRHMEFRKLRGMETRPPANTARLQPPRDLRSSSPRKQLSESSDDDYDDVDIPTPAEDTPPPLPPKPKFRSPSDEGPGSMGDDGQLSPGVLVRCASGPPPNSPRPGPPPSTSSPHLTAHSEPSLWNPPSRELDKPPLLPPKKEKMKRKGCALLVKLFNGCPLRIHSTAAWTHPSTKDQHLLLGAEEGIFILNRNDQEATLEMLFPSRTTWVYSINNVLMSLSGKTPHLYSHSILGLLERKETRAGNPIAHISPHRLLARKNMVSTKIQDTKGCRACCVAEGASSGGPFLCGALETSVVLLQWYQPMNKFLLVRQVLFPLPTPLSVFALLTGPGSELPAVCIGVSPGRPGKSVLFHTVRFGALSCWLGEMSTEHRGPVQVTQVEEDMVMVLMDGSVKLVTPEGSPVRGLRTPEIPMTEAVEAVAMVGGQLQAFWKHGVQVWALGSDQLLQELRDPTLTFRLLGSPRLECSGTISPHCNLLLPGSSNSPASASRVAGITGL

SMILES | DC50 [nM] | Dmax [%]
CC(C)n1cnc2cc(-c3ccc4c(c3)N([C@H]3C[C@@H](N5CCCCC5)C3)C(=O)C43CCN(C(=O)C(C)(C)N4CCN(C(=O)C5CCN(c6ccc(C7CCC(=O)NC7=O)cn6)CC5)CC4)CC3)nc(NC3CC3)c21 (mixture of isomers) [Example 188, (3RS)-3-(6-{4-[4-(1-{6-[4-(cyclopropylamino)-3-isopropylimidazo[4,5-c]pyridin-6-yl]-2-oxo-1-[(1S,3S)-3-(piperidin-1-yl)cyclobutyl]spiro[indole-3,4′-piperidin]-1′-yl}-2-methyl-1-oxopropan-2-yl)piperazine-1-carbonyl]piperidin-1-yl}pyridin-3-yl)piperidine-2,6-dione] | < 100 | 70 to 85
CC(C)n1cnc2cc(-c3ccc4c(c3)N([C@H]3C[C@@H](N5CCCCC5)C3)C(=O)C43CCN(C(=O)[C@@]45C[C@@H]4CN(C(=O)C4CCN(c6ccc(C7CCC(=O)NC7=O)cn6)CC4)C5)CC3)nc(NC3CC3)c21 (mixture of isomers) [Example 259, (3RS)-3-(6-{4-[(1S,5S)-1-({6-[4-(cyclopropylamino)-3-(propan-2-yl)-3H-imidazo[4,5-c]pyridin-6-yl]-2-oxo-1-[(1S,3S)-3-(piperidin-1-yl)cyclobutyl]-1,2-dihydrospiro[indole-3,4′-piperidin]-1′-yl}carbonyl)-3-azabicyclo[3.1.0]hexane-3-carbonyl]piperidin-1-yl}pyridin-3-yl)piperidine-2,6-dione] | < 100 | 70 to 85
CC(C)n1cnc2cc(-c3ccc4c(c3)N([C@H]3C[C@@H](N5CCCCC5)C3)C(=O)C43CCN(C(=O)C4C5COCC4CN(C(=O)C4CCN(c6ccc(C7CCC(=O)NC7=O)cn6)CC4)C5)CC3)nc(NC3CC3)c21 (mixture of isomers) [Example 288, (3RS)-3-(6-{4-[9-({6-[4-(cyclopropylamino)-3-(propan-2-yl)-3H-imidazo[4,5-c]pyridin-6-yl]-2-oxo-1-[(1S,3S)-3-(piperidin-1-yl)cyclobutyl]-1,2-dihydrospiro[indole-3,4′-piperidin]-1′-yl}carbonyl)-3-oxa-7-azabicyclo[3.3.1]nonane-7-carbonyl]piperidin-1-yl}pyridin-3-yl)piperidine-2,6-dione] | < 100 | > 85
CC(C)n1cnc2cc(-c3ccc4c(c3)N([C@H]3C[C@@H](N5C6COCC5C6)C3)C(=O)C43CCN(C(=O)C4(C)CCN(C(=O)C5CCN(c6ccc(C7CCC(=O)NC7=O)cn6)CC5)CC4)CC3)nc(NC3CC3)c21 (mixture of isomers) [Example 218, (3RS)-3-(6-{4-[4-({6-[4-(cyclopropylamino)-3-(propan-2-yl)-3H-imidazo[4,5-c]pyridin-6-yl]-2-oxo-1-[(1S,3S)-3-{3-oxa-6-azabicyclo[3.1.1]heptan-6-yl}cyclobutyl]-1,2-dihydrospiro[indole-3,4′-piperidin]-1′-yl}carbonyl)-4-methylpiperidine-1-carbonyl]piperidin-1-yl}pyridin-3-yl)piperidine-2,6-dione] | 100 to 500 | 50 to 70
CC(C)n1cnc2cc(-c3ccc4c(c3)N([C@H]3C[C@@H](N5CCCCC5)C3)C(=O)C43CCN(C(=O)C4CCN(C(=O)[C@H]5CC[C@H](Oc6ccc(C7CCC(=O)NC7=O)cn6)CC5)CC4)CC3)nc(Nc3ccccc3F)c21 (mixture of isomers) [Example 62, (3RS)-3-(6-{[(1R,4R)-4-{4-[(6-{4-[(2-fluorophenyl)amino]-3-(propan-2-yl)-3H-imidazo[4,5-c]pyridin-6-yl}-2-oxo-1-[(1S,3S)-3-(piperidin-1-yl)cyclobutyl]-1,2-dihydrospiro[indole-3,4′-piperidin]-1′-yl)carbonyl]piperidine-1-carbonyl}cyclohexyl]oxy}pyridin-3-yl)piperidine-2,6-dione] | 100 to 500 | 50 to 70
CC(C(=O)N1CCN(C(=O)C2CCN(c3cc(C4CCC(=O)NC4=O)ccn3)CC2)CC1)N1CCC2(CC1)C(=O)N([C@H]1C[C@@H](N3CCCCC3)C1)c1cc(-c3cc4ncn(C(C)C)c4c(NC4CC4)n3)ccc12 (stereo partly drawn) [Example 173, 3-(2-{4-[4-(2-{6-[4-(cyclopropylamino)-3-(propan-2-yl)-3H-imidazo[4,5-c]pyridin-6-yl]-2-oxo-1-[(1S,3S)-3-(piperidin-1-yl)cyclobutyl]-1,2-dihydrospiro[indole-3,4′-piperidin]-1′-yl}propanoyl)piperazine-1-carbonyl]piperidin-1-yl}pyridin-4-yl)piperidine-2,6-dione] | 100 to 500 | 70 to 85

Other lines, results leading:

DC50 [nM] | Dmax [%] | SMILES
100 to 500 | 70 to 85 | CC(C)n1cnc2cc(-c3ccc4c(c3)N([C@H]3C[C@@H](N5CCCCC5)C3)C(=O)C43CCN(C(=O)[C@@H]4CCN(C(=O)[C@H]5CC[C@H](Nc6ccc(C7CCC(=O)NC7=O)cn6)CC5)C4)CC3)nc(Nc3ccccc3F)c21 (mixture of isomers) [Example 6, (3RS)-3-(6-{1[(1R,4R)-4-[(3R)-3-[(6-{4-[(2-fluorophenyl)amino]-3-(propan-2-yl)-3H-imidazo[4,5-c]pyridin-6-yl}-2-oxo-1-[(1S,3S)-3-(piperidin-1-yl)cyclobutyl]-1,2-dihydrospiro[indole-3,4′-piperidin]-1′-yl)carbonyl]pyrrolidine-1-carbonyl]cyclohexyl]amino}pyridin-3-yl)piperidine-2,6-dione]
< 100 | 70 to 85 | CC(C)n1cnc2cc(-c3ccc4c(c3)N([C@H]3C[C@@H](N5CCCCC5)C3)C(=O)C43CCN(C(=O)C4(C5CCN(C(=O)C6CCN(c7ccc(C8CCC(=O)NC8=O)cn7)CC6)CC5)CCC4)CC3)nc(NC3CC3)c21 (mixture of isomers) [Example 300, (3RS)-3-[6-(4-{4-[1-({6-[4-(cyclopropylamino)-3-(propan-2-yl)-3H-imidazo[4,5-c]pyridin-6-yl]-2-oxo-1-[(1S,3S)-3-(piperidin-1-yl)cyclobutyl]-1,2-dihydrospiro[indole-3,4′-piperidin]-1′-yl}carbonyl)cyclobutyl]piperidine-1-carbonyl}piperidin-1-yl)pyridin-3-yl]piperidine-2,6-dione]
< 100 | 50 to 70 | CC(C)n1cnc2cc(-c3ccc4c(c3)N([C@H]3C[C@@H](N5CCCCC5)C3)C(=O)C43CCN(C(=O)[C@H]4CC[C@@H](C(=O)N5CCC(Nc6ccc(C7CCC(=O)NC7=O)cn6)CC5)CC4)CC3)nc(NC3CC3)c21 (mixture of isomers) [Example 29, (3RS)-3-[6-({1-[(1S,4S)-4-({6-[4-(cyclopropylamino)-3-(propan-2-yl)-3H-imidazo[4,5-c]pyridin-6-yl]-2-oxo-1-[(1S,3S)-3-(piperidin-1-yl)cyclobutyl]-1,2-dihydrospiro[indole-3,4′-piperidin]-1′-yl}carbonyl)cyclohexanecarbonyl]piperidin-4-yl}amino)pyridin-3-yl]piperidine-2,6-dione]
< 100 | > 85 | CC(C)n1cnc2cc(-c3ccc4c(c3)N([C@H]3C[C@@H](N5CCCCC5)C3)C(=O)C43CCN(C(=O)C4(C)CCN(C(=O)C5CCN(c6ccc(N7CCC(=O)NC7=O)cn6)CC5)CC4)CC3)nc(Nc3ccccc3F)c21 [Example 116, 1-[6-(4-{4-[(6-{4-[(2-fluorophenyl)amino]-3-(propan-2-yl)-3H-imidazo[4,5-c]pyridin-6-yl}-2-oxo-1-[(1S,3S)-3-(piperidin-1-yl)cyclobutyl]-1,2-dihydrospiro[indole-3,4′-piperidin]-1′-yl)carbonyl]-4-methylpiperidine-1-carbonyl}piperidin-1-yl)pyridin-3-yl]-1,3-diazinane-2,4-dione]
100 to 500 | > 85 | CC(C)n1cnc2cc(-c3ccc4c(c3)N([C@H]3C[C@@H](N5CCCCC5)C3)C(=O)C43CCN(C(=O)C4(C(F)(F)F)CCN(C(=O)C5CCN(c6ccc(C7CCC(=O)NC7=O)cn6)CC5)CC4)CC3)nc(NC3CC3)c21 (mixture of isomers) [Example 275, (3RS)-3-(6-{4-[4-({6-[4-(cyclopropylamino)-3-(propan-2-yl)-3H-imidazo[4,5-c]pyridin-6-yl]-2-oxo-1-[(1S,3S)-3-(piperidin-1-yl)cyclobutyl]-1,2-dihydrospiro[indole-3,4′-piperidin]-1′-yl}carbonyl)-4-(trifluoromethyl)piperidine-1-carbonyl]piperidin-1-yl}pyridin-3-yl)piperidine-2,6-dione]
< 100 | 70 to 85 | CC(C)n1cnc2cc(-c3ccc4c(c3)N([C@H]3C[C@@H](N5CCCCC5)C3)C(=O)C43CCN(C(=O)[C@@H]4CCN(C(=O)C5CCN(c6ccc(C7CCC(=O)NC7=O)cn6)CC5)C4)CC3)nc(NC3CC3)c21 (mixture of isomers) [Example 23, (3RS)-3-(6-{4-[(3R)-3-({6-[4-(cyclopropylamino)-3-(propan-2-yl)-3H-imidazo[4,5-c]pyridin-6-yl]-2-oxo-1-[(1S,3S)-3-(piperidin-1-yl)cyclobutyl]-1,2-dihydrospiro[indole-3,4′-piperidin]-1′-yl}carbonyl)pyrrolidine-1-carbonyl]piperidin-1-yl}pyridin-3-yl)piperidine-2,6-dione]
< 100 | 70 to 85 | CC(C)n1cnc2cc(-c3ccc4c(c3)N([C@H]3C[C@@H](N5CCCCC5)C3)C(=O)C43CCN(C(=O)C4CCN(C(=O)C5CCN(c6ccc7c(c6)C(=O)N(C6CCC(=O)NC6=O)C7=O)CC5)CC4)CC3)nc(Nc3ccccc3F)c21 (mixture of isomers) [Example 87, 2-[(3RS)-2,6-dioxopiperidin-3-yl]-5-(4-{4-[(6-{4-[(2-fluorophenyl)amino]-3-(propan-2-yl)-3H-imidazo[4,5-c]pyridin-6-yl}-2-oxo-1-[(1S,3S)-3-(piperidin-1-yl)cyclobutyl]-1,2-dihydrospiro[indole-3,4′-piperidin]-1′-yl)carbonyl]piperidine-1-carbonyl}piperidin-1-yl)-2,3-dihydro-1H-isoindole-1,3-dione]
